Where no end group is shown, it is not given here.

The text below walks through data of paper PMC2734971 (Pharmaceutical research, 2009).

In assay [1] the test system is solid tumors / αVβ3 integrins. The note with it: prostate tumors; cited from earlier work.
Assay [2] deals with MDA-MB-231 tumor xenografts. Put plainly: In vivo MR T1-mapping of MDA-MB-231 tumor-bearing SCID mice. Also noted: species or system SCID mice (human breast cancer xenograft).
The next assay has as its system kidney. Put plainly: T1-weighted coronal MR imaging, kidney signal. The class given is in vivo, SCID mice. The note with it: up to 24 h; 0.03 mmol-Gd/kg i.v.; 9.4 tesla.

As to “KACDCRGDCFCG (also: bicyclic or more (positions not given here)) [RGD4C]”, the “enhancement of tumor accumulation vs copolymers without targeting peptide” value in assay [1] is on record as “four to fivefold enhancement”.
Consider “P-RGDfK-Gd: HPMA copolymer with Gd-DOTA and RGDfK side chains; Mw 43,000; 0.428 mmol/g RGDfK, 0.14 mmol/g Gd”, for which the “T1 at tumor site, targetable vs non-targetable, other time points” value in assay [2] (10 min, 30 min, 1, 6, 24 h, 0.03 mmol-Gd/kg i.v.) is given as “no significant difference”. For the same substance, the “mean T1 value at tumor site, 2 h post-injection” value in assay [2] (2 h after i.v. injection, 0.03 mmol-Gd/kg, 9.4 tesla, 4 mice/group, mean±SD) turned out to be 1950 ± 189.8 ms. Besides, the “signal enhancement in kidney” value in the assay on kidney was “signal enhancement in kidney up to 24 h”.
